Experiments:
[1] = system: latently HIV-1 infected cell line (U1); experiment: Activation of latent HIV from U1 cells (p24 ELISA); assay type: cell-based, HIV-1 LAI strain; settings: 20 hr, FIG. 7
Description: However, the regimen is very burdensome, requiring strict adherence to prevent a recurrence of viraemia. Long-lived cells […], such as CD4^+ cells, act as a major latent reservoir and enable the virus to avoid anti-retroviral chemotherapy or immune system surveillance. There is, therefore, an urgent need to find an agent which activates latent virus from the infected cells. Activated virus could then be killed by aggressive anti-retroviral chemotherapy and it has been hypothesized that immune system surveillance could also be improved under these conditions. Such an agent could have utility in other disease states in which virus is sequestered in infected cells, e.g. herpes infections. Anti-cancer agents have been widely investigated as potential anti-HIV agents. […] However, PMA is a known tumor promoter. A latently HIV-1 infected cell line (U1), derived from the promonocytic cell line U937 after infection with HIV-1 LAI strain, was used in these experiments. In the absence of activation, no or little virus (measured as p24 production) is produced by the U1 cell line. […]
Supernatants were collected and viral replication monitored by determination of the amounts of HIV p24 gag protein in the culture supernatants by ELISA, using a NEN Life Science HIV-1 p24 ELISA kit. p24 values were calculated from OD values using a standard curve.

[2] = system: Human peripheral blood mononuclear cells (PBMC); experiment: Phagocytic activity of PBMC, nitroblue tetrazolium uptake; assay type: cell-based; settings: 100 ng/mL; 20 min; controls <2%
Procedure: Human peripheral blood mononuclear cells (PBMC) prepared by standard Ficoll separation comprise approximately 5% monocytes. PBMC were incubated with dihydroethidium, a reduced form of the dye which becomes fluorescent when oxidized by a respiratory burst, then treated in 10% FCS-RPMI 1640 at 37° C. for 15 min with crude E. peplus extract diluted 1/1000 or 100 ng/mL TPA and analyzed by flow cytometry using conventional methods (Handbook of Flow Cytometry Methods, p. 151) The mean channel numbers for fluorescence were 618 (controls) and 818 (E. peplus extract diluted 1/1000). […] Phagocytic activity was determined by a conventional method (Hudson and Hay, Practical Immunology, 3rd edition, p. 74). […] The average of three fields gave figures of <2% (controls), 10% (TPA) and 8.7% (E. peplus sap) cells stained blue.

[3] = system: Peripheral blood mononuclear cells (PBMC); experiment: Respiratory burst (H2O2) in PBMC, DCFH-DA flow cytometry; assay type: cell-based; settings: 15 min at 37° C.; granulocytes, monocytes, lymphocytes
Procedure: Experiments were also carried out using 2′,7′-dichlorofluorescein diacetate (DCFH-DA) to measure the production of H2O2.(J P Robinson, Oxidative burst methods, in Handbook of Flow Cytometry Methods, Wiley-Liss Inc, pp147-149, 1993). H2O2 oxidizes the non-fluorescent probe (DCFH-DA) to a fluorescent probe that can then be detected by a flow cytometer. Peripheral blood mononuclear cells (PBMC) were extracted from a donor blood sample by lysis of heparinized blood and used in a suspension of 1×10^6/mL of phosphate buffer, pH 7.3. The cells were then incubated with DCFH-DA (1 μL/mL of 20 mM stock) for 15 minutes to allow it to be taken up and trapped by hydrolysis with cellular esterases. The cells were then stimulated by test compounds for 15 min at 37° C. Controls included in the experiment were unloaded control (cells with no DCFH-DA) and loaded control (cells with DCFH-DA, but no stimulation). These were used to monitor the non-specific oxidation of unstimulated cells. The cells were then analyzed on the flow cytometer (excitation at 488 nm, emission at 525±20 nm), gating each sample for individual cell populations-granulocytes, monocytes and lymphocytes (Table 3).

[4] = system: peripheral blood mononuclear cells (PBMCs); experiment: Phagocytosis with fluorescent beads; assay type: cell-based; settings: whole heparinized blood, 30 min at 37° C.
Procedure: Phagocytosis by peripheral blood mononuclear cells (PBMCs) was assayed (Steinkamp et al., 1982) using 1 μm Fluoresbrite™ yellow-green fluorescent latex spheres (Polysciences, Inc., Warrington, Pa.). A sample of whole, heparinized blood was treated with drug and 5×10E7 fluorescent latex beads in 10 μL of PBS added per mL of suspension. Cells were incubated and maintained in suspension for 30 min by means of a shaker platform at 37° C. The stirnulated and non-stimulated samples were then lysed to isolate PBMCs. The PBMCs were run on the flow cytometer measuring FITC (excitation at 488 nm, emission at 525±20 nm), gated for fluorescence (phagocytosed spheres) and light scatter (cell size).

[5] = system: EBV in Burkitt's lymphoma cell lines (MutuI and BL74); experiment: EBV activation in Burkitt's lymphoma cell lines (VCA western blot); assay type: cell-based
Procedure: To ensure that equal amounts of each sample were analyzed, the gels were stained with Coomassie blue and the loadings were adjusted to make them equal. […] Next the PEP003 and PEP004 were assayed on two Burkitt's lymphoma cell lines and an LCL. This time only concentrations of 10^−5 and 10^−7 were used.

CCCCCCCCCCCCCC(=O)O[C@@H]1[C@@H](C)[C@@]2(O)[C@@H](C=C(CO)C[C@]3(O)C(=O)C(C)=C[C@@H]23)C2C(C)(C)[C@@]21OC(C)=O (single isomer, unassigned) [TPA]
activation of HIV from U1 cells (p24 production) [1]: activated HIV from U1 cells
cells stained blue (NBT) [2]: 10%
induction of a respiratory burst (H2O2, DCFH-DA) [3]: respiratory burst seen
stimulation of phagocytosis of fluorescent latex beads [4]: stimulate phagocytosis in PBMCs
induction of VCA in MutuI cells [5]: TPA did not

From patent publication US20030195168A1, “Therapeutic agents - III” (priority 2000, published 2003)
